Positions count from the first letter of the chain named. Where two headings read alike, the source gives them in different places. Blank lines part the entries; values can stand above or below the molecule they belong to.
Key:
[1] = test system: Kv7.1 channel, V307L; conditions: cited from earlier work
[2] = molecular target: T1, WT KIR2.1 (Homo sapiens, UniProt P63252); assay: Inside-out patch clamp, ramp protocol, WT KIR2.1 currents; assay type: cell-based; conditions: inside-out mode, HEK293T, 21 °C
T1 construct: expressed in transfected cells; host or cells: HEK293T
T1 sequence (P63252 1-427): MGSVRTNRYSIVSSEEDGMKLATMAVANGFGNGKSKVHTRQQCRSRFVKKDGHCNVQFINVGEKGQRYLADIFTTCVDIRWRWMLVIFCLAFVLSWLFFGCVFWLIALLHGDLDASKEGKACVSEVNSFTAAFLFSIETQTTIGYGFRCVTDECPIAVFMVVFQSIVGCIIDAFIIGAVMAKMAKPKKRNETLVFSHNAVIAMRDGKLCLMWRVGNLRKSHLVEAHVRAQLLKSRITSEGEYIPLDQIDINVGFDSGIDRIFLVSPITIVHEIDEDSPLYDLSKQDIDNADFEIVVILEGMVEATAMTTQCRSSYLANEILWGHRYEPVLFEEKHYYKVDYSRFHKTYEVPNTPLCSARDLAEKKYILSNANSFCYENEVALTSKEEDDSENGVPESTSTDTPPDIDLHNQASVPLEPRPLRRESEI
Excerpt: (§1) Mutations V93I and D172N were engineered into a human KCNJ2-pcDNA3 expression construct, using the QuikChange II XL Site-Directed Mutagenesis Kit (Stratagene, La Jolla, CA) and custom designed primers. The presence of the introduced mutations was confirmed by Sanger sequencing.
(§2) HEK293T cells were transfected with WT, V93I or D172N constructs together with a GFP expression construct to enable detection of transfected cells. Inside-out patch clamp measurements were made using a HEKA EPC-10 Double Plus amplifier controlled by PatchMaster 2.10 software (HEKA, Lambrecht/Pfalz, Germany) at 21 °C. To record WT, V93I and D172N KIR2.1 currents, inside-out patch-clamp measurements were performed using a ramp protocol ranging from −100 to +100 mV in 5 s from a holding potential of −40 mV. Excised patches were placed in close proximity to the inflow region of the perfusion chamber. Bath solution contained 125 mM KCl, 4 mM EDTA (2K), 7.2 mM K2HPO4, 2.8 mM KH2PO4, pH 7.20/KOH. Pipette solution contained 145 mM KCl, 1 mM CaCl2, 5 mM HEPES, pH 7.40/KOH. Measurements were started following washout of polyamines/Mg^2+ from the channel pore observed by the disappearance of current rectification. For IC50 curves, fractional block at −80 and +50 mV was determined by dividing current levels obtained with PA-6 containing solutions by current levels of control traces recorded in the absence of PA-6.

[3] = molecular target: T2, V93I KIR2.1 (Homo sapiens, UniProt P63252, V93I); assay: Western blot of KIR2.1 expression, transiently transfected HEK293T cells, V93I; assay type: cell-based; conditions: 24 h
T2 construct: expressed in transfected cells; host or cells: HEK293T
T2 sequence (P63252 1-427 V93I): T1 sequence (P63252 1-427) with V93I
Experimental: (§3) HEK293T cells were grown in 60 mm culture dishes containing 3 mL DMEM supplemented with 10% FCS, L-Glutamine and Pen-Strep, and transfected using linear polyethylenimine (PEI) (PolysciencesInc, Eppelheim, Germany) as described earlier. Cell lysates were prepared in buffer D (20 mM HEPES, 125 mM NaCl, 10% glycerol, 1 mM EDTA, 1 mM EGTA, 1 mM dithiothreitol, and 1% Triton X-100, pH 7.6, supplemented with 1 mM PMSF and 10 μg/mL aprotinin). 20 μg protein lysate was separated by 10% SDS-PAGE and blotted onto nitrocellulose membrane. Ponceau staining was used to reveal equal protein loading and subsequent quantification. Blots were blocked with 5% (v/v) […] in TBST (20 mM Tris-HCl pH 8.0, 150 mM NaCl, 0.05% (v/v) Tween-20) for 1 h at room temperature. KIR2.1 WT and mutants were detected by N-terminal KIR2.1 antibody (Santa Cruz Biotechnology, Dallas Tx, USA, cat. No. sc-18708) and peroxidase-conjugated donkey anti-goat secondary antibody (Jackson ImmunoResearch, West Grove, PA, cat. No. 705-035-003) followed by ECL detection procedure (GE Healthcare, Hoevelaken, The Netherlands). For quantification purposes, untransfected HEK293T cells were used as blank and protein levels were normalized to ponceau staining levels. Differences between group averages were tested by using a one-way ANOVA with a Bonferroni’s post-hoc test.

[4] = test system: WT, V93I and D172N KIR2.1 channels; assay: Immunofluorescence microscopy of KIR2.1 localization in MES-1 cells; assay type: cell-based, human; conditions: 5 μM, 24 h
Experimental: HEK293T and MES-1 cells were cultured on pre-coated (0.1% gelatin) glass coverslips and transfected using Lipofectamin (Invitrogen, Breda, The Netherlands). Cell fixation, immunolabeling and imaging were performed exactly as described earlier. […] HEK293T cells were imaged by confocal microscopy using a Zeiss LSM 700 confocal microscope (Carl Zeiss Microscopy GmbH, Germany) equipped with a 63× oil immersion objective (NA 1.4). […] MES-1 cells were imaged using a conventional Nikon eclipse 80i light microscopy equipped with a 40× objective (NA 0.75).

[5] = molecular target: T3, D172N KIR2.1 (Homo sapiens, UniProt P63252, D172N); assay: Inside-out patch clamp, ramp protocol, D172N KIR2.1 currents; assay type: cell-based; conditions: inside-out mode; for IC50: HEK293T, 21 °C
T3 construct: expressed in transfected cells; host or cells: HEK293T
T3 sequence (P63252 1-427 D172N): T1 sequence (P63252 1-427) with D172N
Excerpt: as §1, §2

[6] = molecular target: T2, V93I KIR2.1; assay: Whole cell patch clamp, V93I KIR2.1 currents; assay type: cell-based; conditions: whole cell mode
Experimental: as §1
(§4) Whole cell patch clamp measurements were done as described before using an AxoPatch 200B amplifier controlled by pClamp9 software (Molecular devices, Sunnyvale, CA, USA) at 21 °C. Whole cell IKIR2.1 measurements were performed by applying 1 s test pulses ranging between −120 and +30 mV, in 10 mV increments, from a holding potential of −40 mV, and with series resistance compensation of at least 70%. Steady state current at the end of the pulse was normalized to cell capacitance and plotted versus test potential (corrected for liquid junction potential). Extracellular solution contained 140 mM NaCl, 5 mM KCl, 1 mM CaCl2, 1 mM MgCl2, 6 mM glucose, 17.5 mM NaHCO3, 15 mM HEPES, pH 7.4/NaOH. Pipette solution contained 125 mM potassium gluconate, 10 mM KCl, 5 mM HEPES, 5 mM EGTA, 2 mM MgCl2, 0.6 mM CaCl2, 4 mM Na2ATP, pH 7.20/KOH.

[7] = molecular target: T2, V93I KIR2.1; assay: Inside-out patch clamp, ramp protocol, V93I KIR2.1 currents; assay type: cell-based; conditions: inside-out mode, HEK293T, 21 °C
Excerpt: as §1, §2

[8] = molecular target: T3, D172N KIR2.1; assay: Western blot of KIR2.1 expression, transiently transfected HEK293T cells, D172N; assay type: cell-based; conditions: 24 h
Experimental: as §3

[9] = molecular target: T1, WT KIR2.1; assay: Western blot of KIR2.1 expression, transiently transfected HEK293T cells, WT; assay type: cell-based; conditions: 24 h
Experimental: as §3

[10] = test system: WT KIR2.1; conditions: 10 μM, cells stably expressing GFP-tagged KIR2.1; cited from earlier work
[11] = test system: IK1 / KIR2.1 ion channel; design: method as in PMID 23625347; conditions: inside-out patch clamp methodology; read-out: IC50, IK1 inhibition; cited from earlier work
[12] = molecular target: T3, D172N KIR2.1; assay: Whole cell patch clamp, D172N KIR2.1 currents; assay type: cell-based; conditions: whole cell mode
Experimental: as §1, §4

[13] = molecular target: T1, WT KIR2.1; assay: Whole cell patch clamp, WT KIR2.1 currents; assay type: cell-based; conditions: whole cell mode
Experimental: as §1, §4

[14] = test system: WT, V93I and D172N KIR2.1 channels; assay: Confocal immunofluorescence microscopy of KIR2.1 localization in HEK293T cells; assay type: cell-based, human; conditions: 24 h, WT or mutant
Experimental: HEK293T and MES-1 cells were cultured on pre-coated (0.1% gelatin) glass coverslips and transfected using Lipofectamin (Invitrogen, Breda, The Netherlands). Cell fixation, immunolabeling and imaging were performed exactly as described earlier. Antibodies used were anti-KIR2.l (1:250; Santa Cruz Biotechnology, cat. no. sc-18708) and anti-Pan Cadherin (1:800, Sigma-Aldrich, St. Louis MO, USA, cat. No. C1821). HEK293T cells were imaged by confocal microscopy using a Zeiss LSM 700 confocal microscope (Carl Zeiss Microscopy GmbH, Germany) equipped with a 63× oil immersion objective (NA 1.4). Excitation was performed with an air-cooled Argon ion laser (LASOS, RMC 7812Z, 488 nm) for GFP and a HeNE (LASOS, SAN 7450A, 543 nm) laser for DyLight. MES-1 cells were imaged using a conventional Nikon eclipse 80i light microscopy equipped with a 40× objective (NA 0.75).

[15] = test system: D172N KIR2.1; conditions: read-out: IC50 (sensitivity for chloroquine); whole cell mode; cited from earlier work
[16] = test system: WT KIR2.1; conditions: read-out: IC50 (sensitivity for chloroquine); whole cell mode; cited from earlier work
[17] = test system: Kv11.1 (hERG) channel, WT and N558K; conditions: N558K less sensitive than WT; cited from earlier work
[18] = at +50 mV, read-out: IC50, outward current
[19] = at −80 mV, read-out: IC50, inward current
[20] = at −50 mV, read-out: Inhibition of outward IK1
[21] = at −110 mV, read-out: Inhibition of inward IK1

Compound: CCS(=O)(=O)N(C)[C@H]1c2cc(C#N)ccc2OC(C)(C)[C@@H]1O [Chromanol293B]
Increase of IC50 value by V307L mutation ([1]; V307L versus WT Kv7.1): 7 fold

IC50 [2, 18]: 35.5 nM
IC50 [2, 19]: 52.9 nM
Increase of KIR2.1 expression level ([3]; 5 μM): 3.9 ± 0.9 fold
IC50 [5, 18]: 129 nM
IC50 [5, 19]: 109 nM
inhibition at 1 µM [6, 20]: 18 ± 20%
inhibition at 1 µM [6, 21]: 28 ± 14%
inhibition at 3 µM [6, 20]: 77 ± 29%
inhibition at 3 µM [6, 21]: 64 ± 4%
IC50 [6]: 1000 to 3000 nM
IC50 [7, 18]: 43.6 nM
IC50 [7, 19]: 58 nM
Increase of KIR2.1 expression level ([8]; 5 μM): 4.8 ± 2.0 fold
Increase of KIR2.1 expression level ([9]; 5 μM): 6.3 ± 1.5 fold
inhibition at 1 µM [12, 20]: 10 ± 6%
inhibition at 1 µM [12, 21]: 30 ± 10%
inhibition at 3 µM [12, 20]: 86 ± 7%
inhibition at 3 µM [12, 21]: 83 ± 1%
IC50 [12]: 1000 to 3000 nM
inhibition at 1 µM [13, 20]: 28 ± 36%
inhibition at 1 µM [13, 21]: 30 ± 16%
inhibition at 3 µM [13, 20]: 94 ± 6%
inhibition at 3 µM [13, 21]: 68 ± 15%
IC50 [13]: 1000 to 3000 nM
Compound: N=C(Nc1ccc(OCCCCCOc2ccc(NC(=N)c3ccccc3)cc2)cc1)c1ccccc1 [PA-6]
Effect on KIR2.1 expression level at lower concentrations ([3]; 0.2 and 1 μM): did not result in significant increased expression
Subcellular location of KIR2.1 channels [4]: resulted in intracellular accumulation
Sensitivity of D172N channels relative to WT and V93I [5]: approximately two to three fold less sensitive
Effect on KIR2.1 expression level at lower concentrations ([8]; 0.2 and 1 μM): did not result in significant increased expression
Effect on KIR2.1 expression level at lower concentrations ([9]; 0.2 and 1 μM): did not result in significant increased expression
Effect on WT KIR2.1 expression [10]: able to enhance expression of WT KIR2.1
IC50 [11]: 14 nM
Subcellular location of KIR2.1 channels ([14]; 1 μM): induced an intracellular increase of the channel proteins in small aggregates
Subcellular location of KIR2.1 channels ([14]; 5 μM): further increased the level of intracellular accumulation

Compound: CCN(CC)CCCC(C)Nc1ccnc2cc(Cl)ccc12 (centres unmarked) [chloroquine]
IC50 [15]: 1200 to 3300 nM
IC50 [16]: 1400 to 2400 nM

Compound: CC[C@H]1CN2CC[C@H]1C[C@@H]2[C@@H](O)c1ccnc2ccc(OC)cc12 [hydroquinidine]
Difference in IC50 values for WT and N558K Kv11.1 channels [17]: 3.5 fold

Compound: OC(c1cc(C(F)(F)F)nc2c(C(F)(F)F)cccc12)C1CCCCN1 (centres unmarked) [mefloquine]
Sensitivity of V307L Kv7.1 versus WT variant [1]: equally sensitive
